Results from ChEMBL document CHEMBL1201862, “PubChem BioAssay data set” (2004).
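Results reflect a 48-hour exposure of cells in 96-well plates to compound at five concentrations. GI50: concentration for 50% inhibition of growth.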 Calls of active or inactive are those of the source. No stated cut-off is given here; in the data, active = GI50 up to about 1.1 µM and inactive = higher.

Legend:
Assay in all cases: growth of human tumour cells (NCI), 48 h
SK-MEL-2 = tested on: SK-MEL-2
OVCAR-4 = tested on: OVCAR-4
RXF 393 = tested on: RXF 393
NCI-H522 = tested on: NCI-H522
SNB-78 = tested on: SNB-78
KM12 = tested on: KM12
SN12C = tested on: SN12C
SK-MEL-5 = tested on: SK-MEL-5
DMS-273 = tested on: DMS-273
NCI-H226 = tested on: NCI-H226
CCRF-CEM = tested on: CCRF-CEM
SF-539 = tested on: SF-539
A498 = tested on: A498
XF498 = tested on: XF498

Measured: GI50

CCC(C(C)N1CC(=O)NC(=O)C1)N1CC(=O)NC(=O)C1 (stereo not drawn)
inactive: SK-MEL-2 > 100 µM | OVCAR-4 > 100 µM | RXF 393 > 100 µM | NCI-H522 5.65 µM | SNB-78 > 66.4 µM | KM12 > 100 µM | SN12C 6.27 µM | SK-MEL-5 12.5 µM | DMS-273 12.3 µM | NCI-H226 16.1 µM | CCRF-CEM 4.93 µM | SF-539 > 39.7 µM | A498 > 100 µM | XF498 14.5 µM

O=Cc1c(Br)[nH]c2ccccc12
inactive: SK-MEL-2 75.3 µM | OVCAR-4 56.8 µM | RXF 393 > 100 µM | NCI-H522 61.2 µM | SNB-78 > 67 µM | KM12 > 100 µM | SN12C > 100 µM | SK-MEL-5 45.4 µM | DMS-273 > 100 µM | NCI-H226 > 58.3 µM | CCRF-CEM 96.6 µM | SF-539 > 100 µM | A498 > 100 µM | XF498 > 100 µM
